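All cell lines were grown in 96-well plates and treated with compound for 48 hours. GI50 is the concentration that inhibits growth by half. The concentration for full growth arrest is given as TGI.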
Legend:
Assay in all cases: NCI tumour cell line growth inhibition, 48 h
XF 498 CNS = test system: XF 498 CNS
SNB-78 CNS = test system: SNB-78 CNS
DMS 273 small cell lung = test system: DMS 273 small cell lung
LXFL 529 NSCLC = test system: LXFL 529 NSCLC
DMS 114 small cell lung = test system: DMS 114 small cell lung
SR leukemia = test system: SR leukemia
KM20L2 colon = test system: KM20L2 colon
HOP-18 NSCLC = test system: HOP-18 NSCLC
P388/ADR leukemia = test system: P388/ADR leukemia
SN12K1 renal = test system: SN12K1 renal
P388 leukemia = test system: P388 leukemia
RXF-631 renal = test system: RXF-631 renal

`O=S(=O)(O)c1cc(N=Nc2cc(S(=O)(=O)O)c3ccccc3c2O)ccc1/C=C/c1ccc(N=Nc2cc(S(=O)(=O)O)c3ccccc3c2O)cc1S(=O)(=O)O` showed a GI50 (XF 498 CNS) of over 1000 µM, a TGI (XF 498 CNS) of over 1000 µM and a GI50 (SNB-78 CNS) of over 1000 µM. For the same compound, the TGI (SNB-78 CNS) was over 1000 µM, the GI50 (DMS 273 small cell lung) was over 1000 µM and the TGI (DMS 273 small cell lung) was over 1000 µM. The TGI (LXFL 529 NSCLC) was over 1000 µM, the GI50 (DMS 114 small cell lung) was over 1000 µM and the TGI (DMS 114 small cell lung) was over 1000 µM. For the same compound, the GI50 (SR leukemia) was 32.8 µM and the TGI (SR leukemia) was 70.6 µM.
`c1ccc(-n2cnnc2-c2nsc3ccccc23)cc1` was tested, and the TGI (SNB-78 CNS) was over 100 µM, the TGI (DMS 273 small cell lung) was over 100 µM and the TGI (LXFL 529 NSCLC) was over 100 µM. For the same compound, the TGI (KM20L2 colon) was over 100 µM and the TGI (HOP-18 NSCLC) was over 100 µM.
`C=C1CC23CCC4C(C)(C(=O)O)CCCC4(C)C2CCC1C3` (configuration not stated) showed a TGI (SR leukemia) of 90.9 µM.
Compound `O=C(/C=c1\oc(=O)/c(=C/C(=O)c2ccc(Cl)cc2)oc1=O)c1ccc(Cl)cc1` has a TGI (SR leukemia) of over 100 µM.
`CC(C)=CCc1c(O)ccc2c1OC1c3ccc(O)c(CC=C(C)C)c3OCC21` (configuration not stated) was tested, and the TGI (XF 498 CNS) was 32.6 µM, the TGI (SNB-78 CNS) was 33 µM and the TGI (DMS 273 small cell lung) was 28.2 µM. It also gave a TGI (P388/ADR leukemia) of 32.2 µM, a TGI (KM20L2 colon) of 34 µM and a TGI (SN12K1 renal) of 20.2 µM. It also gave a TGI (DMS 114 small cell lung) of 26.3 µM, a TGI (HOP-18 NSCLC) of 33.3 µM and a TGI (P388 leukemia) of 37.4 µM.
`C=C(C)C(=O)OC1C(C(C)CCCO)=C(CO)CC2OC(=O)C(=C)C21` (configuration not stated) was tested, and the TGI (SR leukemia) was over 100 µM.
Compound `C=C(C)C1CC2=C(O1)C(=O)c1ccccc1C2=O` (configuration not stated) has a TGI (XF 498 CNS) of 32.2 µM, a TGI (SNB-78 CNS) of 39.9 µM and a TGI (DMS 273 small cell lung) of 33.5 µM. For the same compound, the TGI (LXFL 529 NSCLC) was 31.4 µM, the TGI (DMS 114 small cell lung) was 32.9 µM and the TGI (RXF-631 renal) was 40.3 µM.
For `COc1ccc2c(c1)CCC(CN1CCN(CCOC(c3ccc(F)cc3)c3ccc(F)cc3)CC1)C2O` (configuration not stated), the TGI (SR leukemia) was over 100 µM.
In the case of `C/C1=N\NC(=O)c2ccccc2C(=O)N/N=C(\C)c2cccc1n2.O=[N+]([O-])[O-].[Zn+2]`, the TGI (SNB-78 CNS) is reported as over 100 µM, the TGI (LXFL 529 NSCLC) is reported as over 100 µM and the TGI (KM20L2 colon) is reported as over 100 µM. The TGI (DMS 114 small cell lung) was over 100 µM and the TGI (HOP-18 NSCLC) was over 100 µM.
Work on `CCN=C=NCCCN(C)C` yielded a TGI (SR leukemia) of over 100 µM.
In the case of `CC(C)(C)C1(c2ccc(C3(c4ccccc4)Oc4ccccc4S3)[nH]2)Oc2ccccc2S1` (configuration not stated), the TGI (XF 498 CNS) is reported as over 100 µM, the TGI (SNB-78 CNS) is reported as over 100 µM and the TGI (DMS 273 small cell lung) is reported as over 100 µM. For the same compound, the TGI (LXFL 529 NSCLC) was over 100 µM, the TGI (KM20L2 colon) was over 100 µM and the TGI (DMS 114 small cell lung) was over 100 µM. It also gave a TGI (HOP-18 NSCLC) of over 100 µM and a TGI (RXF-631 renal) of over 100 µM.
Work on `Nc1cc(S(=O)(=O)O)cc2cc(S(=O)(=O)O)c(N=Nc3ccc(-c4ccc(N=Nc5c(S(=O)(=O)O)cc6cc(S(=O)(=O)O)cc(N)c6c5O)cc4)cc3)c(O)c12` yielded a TGI (XF 498 CNS) of over 100 µM, a TGI (SNB-78 CNS) of over 100 µM and a TGI (DMS 273 small cell lung) of over 100 µM. It also gave a TGI (KM20L2 colon) of over 100 µM, a TGI (SN12K1 renal) of over 100 µM and a TGI (DMS 114 small cell lung) of over 100 µM. For the same compound, the TGI (HOP-18 NSCLC) was over 100 µM and the TGI (P388 leukemia) was over 100 µM.
For `COC1/C=C\OC2(C)Oc3c(C)c(O)c4c(O)c(c(/C=N\OCCCc5ccccc5)c(O)c4c3C2=O)NC(=O)/C(C)=C\C=C/C(C)C(O)C(C)C(O)C(C)C(OC(C)=O)C1C` (configuration not stated), the TGI (SR leukemia) was 5.98 µM.
Compound `C=C(CN(C)C)C(=O)c1ccc(C)cc1C` has a TGI (XF 498 CNS) of 27.6 µM, a TGI (SNB-78 CNS) of 60.4 µM and a TGI (DMS 273 small cell lung) of 44.2 µM. The TGI (LXFL 529 NSCLC) was 26.9 µM, the TGI (KM20L2 colon) was 39 µM and the TGI (DMS 114 small cell lung) was 46.6 µM. It also gave a TGI (HOP-18 NSCLC) of 30.3 µM, a TGI (SR leukemia) of 4.26 µM and a TGI (RXF-631 renal) of 36.9 µM.
`O=Nc1ccc(O)c2ncccc12` showed a TGI (SNB-78 CNS) of 11.4 µM, a TGI (DMS 273 small cell lung) of 10.3 µM and a TGI (LXFL 529 NSCLC) of 12.9 µM. It also gave a TGI (KM20L2 colon) of 89.9 µM, a TGI (DMS 114 small cell lung) of 12.4 µM and a TGI (HOP-18 NSCLC) of 51.8 µM. For the same compound, the TGI (SR leukemia) was over 100 µM.
Work on `C=C1C(=O)CCC1C(=O)O` (configuration not stated) yielded a TGI (SR leukemia) of over 100 µM.
For `COc1ccc(-c2nn(-c3ccc(NC(=O)Nc4ccc(Cl)c(Cl)c4)cc3)cc2-c2ccncc2)cc1Cl`, the GI50 (SR leukemia) was 2.65 µM and the TGI (SR leukemia) was 35.6 µM.

Reference: PubChem BioAssay (NCI)
